Data: patent EP4389827A1, “AMINOGLYCOSIDE-LINKED PHOTOSENSITIZERS” (Centre National de la Recherche Scientifique, priority 2022, dated 2024)
Read-outs that look alike come from different tables or passages of the source.

Key:
P. aeruginosa PA14 = assay: Antibacterial photodynamic therapy on planktonic cells (CFU count); type: cell-based; conditions: Pseudomonas aeruginosa, PA14, light or radiation study, 0.5 h, irradiated, 5 J/mm^2 (Figure 5a), read-out: Survival drop
Method: (§1) Acinetobacter baumannii DSM30011, Bacillus subtilis 168, Pseudomonas aeruginosa PA14, P. aeruginosa PAO1, Staphylococcus aureus Mu50, S. aureus Newman and S. aureus USA300 were all grown in MHB-CA at 37°C with an agitation of 180 rpm. Candida albicans SC5314 was grown in yeast extract peptone dextrose broth at 35°C with an agitation of 180 rpm.
(§2) Cells were brought to stationary phase by incubating them in MHB-CA for at least 18 hours at 37°C with 180 rpm and diluted to an optical density of 1.0 just before the experiment. Cells were incubated for 20 minutes with either the compounds, photosensitizers alone, or aminoglycosides alone. Unless stated otherwise, a concentration of 10 µM was used for all experiments and samples were irradiated for 30 minutes at 660 nm with the Solis-660C lamp from ThorLabs, receiving a total of 5 J/mm^2. After illumination, cells were washed with phosphate-buffered saline (PBS) 1X, serially diluted and plated on Mueller-Hinton agar. The next day, colony forming units (CFUs) were counted.

P. aeruginosa PAO1 = assay: as above; type: cell-based; conditions: Pseudomonas aeruginosa, PAO1, light or radiation study, 0.5 h, 10 µM, irradiated, 5 J/mm^2 (Figure 5c), read-out: Survival drop
Method: as §1, §2

[1] = tested on: S. aureus Newman persister cells; assay: Antibacterial photodynamic therapy on persister cells; type: cell-based, Staphylococcus aureus; conditions: persister cells (24 hours, 1 mM neomycin); irradiated, 5 J/mm^2 (Figure 7a)
Method: (§3) Persister plateau and AG concentration varied from one species to another. In S. aureus USA300, a stable plateau was obtained following 6 hours of incubation with 2 mM of neomycin. […] This control is crucial to make sure that a persister state has been achieved. […] As there are no significant differences between irradiated and non-irradiated samples, however, the production of singlet oxygen may not be the factor leading to cell death. In S. aureus Newman, cells were treated for 24 hours with 1 mM of neomycin. […] Although this synergy does exist, like in S. aureus USA300, there is no significant difference in survival for irradiated and non-irradiated samples, except for Ce6.

[2] = tested on: S. aureus USA300 persister cells; assay: as above; type: cell-based, Staphylococcus aureus; conditions: persister cells (6 hours, 2 mM neomycin); aPDT at 10 µM, 5 J/mm^2 (Figure 6a)
Method: as §3

[3] = tested on: A. baumannii DSM30011 persister cells; assay: as above; type: cell-based, Acinetobacter baumannii; conditions: persister cells (200 µM neomycin, 24 hours); aPDT, irradiated, 5 J/mm^2
Method: Persister cells were obtained after incubation with 200 µM of neomycin for 24 hours.

[4] = tested on: P. aeruginosa PA14 persister cells; assay: as above; type: cell-based, Pseudomonas aeruginosa; conditions: persister cells (1 mM tobramycin, 24 hours); aPDT, 5 J/mm^2
Method: In P. aeruginosa PA14, persister cells were obtained by treating with 1 mM of tobramycin for 24 hours. The effect of aPDT was not as impactful (Figures 9a, 9b), but there was a slight drop of 1.6 and 1.1 log10 CFU/mL for Neo-Ce6 and Tobra-Ce6, respectively.

B. subtilis 168 = assay: Minimal inhibitory concentration (EUCAST), with or without 660 nm irradiation; type: cell-based, Bacillus subtilis; conditions: read-out: MIC
Method: as §1
(§4) Minimal inhibitory concentrations (MICs) for selected bacteria were investigated according to the EUCAST guidelines. Serial dilutions of the compounds, photosensitizers and aminoglycosides were made in MHB-CA in 384-well plates. Stationary-phase cells were diluted in MHB-CA to have a final concentration of 5.5 × 10^5 CFU/mL. Samples were incubated in the dark for 20 minutes at 37°C and either irradiated at 660 nm for 30 minutes with a LED device or kept in the dark. Irradiated samples received a total of 168 mJ/mm^2. Plates were then incubated at 37°C for 18 hours and MICs were evaluated visually. Triplicates were done and the synergy, or fractional inhibitory concentration (FIC), was calculated according to Doern et al., 2014: FIC = (MIC of AB)/(MIC of A) + (MIC of AB)/(MIC of B) [formula]

K. pneumoniae LM21 = assay: as above; type: cell-based; conditions: read-out: MIC
Method: as §4

E. coli pET-29 = assay: as above; type: cell-based
Method: as §4

E. coli KanR = assay: as above; type: cell-based
Method: as §4

C. albicans SC5314 = assay: Minimal inhibitory concentration, with or without 660 nm irradiation; type: cell-based; conditions: Candida albicans, SC5314, light or radiation study, 18 h, read-out: MIC
Method: as §1, §4

[5] = with (+) irradiation, 660 nm 30 minutes, 168 mJ/mm^2

Row | Structure (SMILES) | log reduction at 10 µM (P. aeruginosa PA14) | log reduction at 10 µM (P. aeruginosa PAO1) | persister cell survival (in words) [1] | persister cell survival (in words) [2] | drop [3] | drop [4] | MIC (B. subtilis 168; Bacillus subtilis, 168, light or radiation study, 18 h, without (-) irradiation) | MIC (B. subtilis 168; [5]) | MIC (K. pneumoniae LM21; Klebsiella pneumoniae, LM21, light or radiation study, 18 h, without (-) irradiation) | MIC (K. pneumoniae LM21; [5]) | MIC (E. coli pET-29; Escherichia coli, PET29, light or radiation study, 18 h, without (-) irradiation) | MIC (E. coli pET-29; [5]) | MIC (E. coli KanR; Escherichia coli, light or radiation study, 18 h) | MIC (E. coli KanR; [5]) | MIC (C. albicans SC5314; [5]) | MIC (C. albicans SC5314; without (-) irradiation)
1 | C=Cc1c(C)c2cc3nc(c(CC(=O)O)c4[nH]c(cc5nc(cc1[nH]2)C(C)=C5CC)c(C)c4C(=O)O)[C@@H](CCC(=O)NC[C@H]1O[C@H](O[C@@H]2[C@@H](O)[C@H](O[C@H]4O[C@H](CN)[C@@H](O)C[C@H]4N)[C@@H](N)C[C@H]2N)[C@H](O)[C@@H](N)[C@@H]1O)[C@@H]3C [Tobra-Ce6] | 2.6 | 3.5 | significantly lower than in cells treated with Ce6 alone | close to or under the detection limit | 1.8 log10 CFU/mL | 1.1 log10 CFU/mL | – | – | – | – | – | – | – | – | – | –
2 | C=Cc1c(C)c2cc3nc(c(CC(=O)O)c4[nH]c(cc5nc(cc1[nH]2)C(C)=C5CC)c(C)c4C(=O)O)[C@@H](CCC(=O)O)[C@@H]3C [Ce6, chlorin e6] | – | – | – | some killing | – | – | > 64 µM | > 64 µM | > 64 µM | > 64 µM | > 64 µM | > 64 µM | > 64 µM | > 64 µM | 32 µM | > 64 µM
